Test results published in patent publication US8633200B2, “Inhibitors of human immunodeficiency virus replication” (priority 2010, dated 2014).
Structures can show the parent of a compound that is named as a salt. Where two headings read alike, the source gives them in different places.

System: recombinant NL-Rluc virus (NL4-3 with Renilla Luciferase gene) in MT-2 cells
Experiment: Inhibition of HIV replication (NL-Rluc luciferase reporter virus, MT-2 cells)
Type: cell-based, human immunodeficiency virus (HIV)
Conditions: NL43, 120 h

Compound | EC50 (read-out: Activity) [µM] | EC50 (read-out: EC50 μM) [µM]
Cc1ccc(-c2c(C(OC(C)(C)C)C(=O)O)c(C)nc3cc(-c4ccccc4)nn23)cc1C (stereo not shown) [Example 1, 2-tert-Butoxy-2-(7-(3,4-dimethylphenyl)-5-methyl-2-phenylpyrazolo[1,5-a]pyrimidin-6-yl)acetic acid, TFA salt] | > 1 | –
Cc1nc2cc(-c3ccccc3)nn2c(-c2ccc3c(c2)CCC3)c1C(OC(C)(C)C)C(=O)O (stereo not shown) [Example 2] | > 1 | –
Cc1nc2cc(-c3ccccc3)nn2c(-c2ccc3c(c2)CCCO3)c1C(OC(C)(C)C)C(=O)O (stereo not shown) [Example 3] | 0.1 to 1 | –
Cc1nc2cc(-c3ccccc3)nn2c(-c2ccc(Cl)cc2)c1C(OC(C)(C)C)C(=O)O (stereo not shown) [Example 4] | > 1 | –
Cc1nc2cc(-c3ccccc3)nn2c(-c2ccc3ccccc3c2)c1C(OC(C)(C)C)C(=O)O (stereo not shown) [Example 5] | > 1 | –
Cc1nc2cc(-c3ccccc3)nn2c(-c2cccnc2)c1C(OC(C)(C)C)C(=O)O (stereo not shown) [Example 6] | > 1 | –
Cc1nc2cc(-c3ccccc3)nn2c(-c2ccccc2OC(F)(F)F)c1C(OC(C)(C)C)C(=O)O (stereo not shown) [Example 7] | > 1 | –
COc1cccc(-c2c(C(OC(C)(C)C)C(=O)O)c(C)nc3cc(-c4ccccc4)nn23)c1 (stereo not shown) [Example 8] | > 1 | –
COc1ccccc1-c1c(C(OC(C)(C)C)C(=O)O)c(C)nc2cc(-c3ccccc3)nn12 (stereo not shown) [Example 9] | > 1 | –
Cc1nc2cc(-c3ccccc3)nn2c(-c2ccccc2)c1C(OC(C)(C)C)C(=O)O (stereo not shown) [Example 10] | > 1 | –
CC(=O)Nc1ccc(-c2c(C(OC(C)(C)C)C(=O)O)c(C)nc3cc(-c4ccccc4)nn23)cc1 (stereo not shown) [Example 11] | > 1 | –
COc1ccc(-c2c(C(OC(C)(C)C)C(=O)O)c(C)nc3cc(-c4ccccc4)nn23)cn1 (stereo not shown) [Example 12] | > 1 | –
Cc1nc2cc(-c3ccccc3)nn2c(-c2ccc(C#N)cc2)c1C(OC(C)(C)C)C(=O)O (stereo not shown) [Example 13] | > 1 | –
Cc1ccccc1-c1c(C(OC(C)(C)C)C(=O)O)c(C)nc2cc(-c3ccccc3)nn12 (stereo not shown) [Example 14] | > 1 | –
Cc1nc2cc(-c3ccccc3)nn2c(-c2ccc(C(F)(F)F)cc2)c1C(OC(C)(C)C)C(=O)O (stereo not shown) [Example 15] | > 1 | –
Cc1nc2cc(-c3ccccc3)nn2c(-c2cccc(Cl)c2)c1C(OC(C)(C)C)C(=O)O (stereo not shown) [Example 16] | > 1 | –
Cc1cccc(-c2c(C(OC(C)(C)C)C(=O)O)c(C)nc3cc(-c4ccccc4)nn23)c1 (stereo not shown) [Example 17] | > 1 | –
Cc1nc2cc(-c3ccccc3)nn2c(-c2ccc(F)cc2F)c1C(OC(C)(C)C)C(=O)O (stereo not shown) [Example 18] | > 1 | –
Cc1nc2cc(-c3ccccc3)nn2c(-c2ccc3c(c2)OCCO3)c1C(OC(C)(C)C)C(=O)O (stereo not shown) [Example 19] | > 1 | –
Cc1nc2cc(-c3ccccc3)nn2c(-c2ccc(O)cc2)c1C(OC(C)(C)C)C(=O)O (stereo not shown) [Example 20] | > 1 | –
Cc1nc2cc(-c3ccccc3)nn2c(-c2ccncc2)c1C(OC(C)(C)C)C(=O)O (stereo not shown) [Example 21] | > 1 | –

Compound | EC50 (read-out: Activity) [µM] | EC50 (read-out: EC50 μM) [µM]
COc1ccc(-c2c(C(OC(C)(C)C)C(=O)O)c(C)nc3cc(-c4ccccc4)nn23)cc1OC (stereo not shown) [Example 22] | > 1 | –
Cc1nc2cc(-c3ccccc3)nn2c(-c2ccc(F)cc2)c1C(OC(C)(C)C)C(=O)O (stereo not shown) [Example 23] | > 1 | –
Cc1nc2cc(-c3ccccc3)nn2c(-c2ccc(Oc3ccccc3)cc2)c1C(OC(C)(C)C)C(=O)O (stereo not shown) [Example 24] | > 1 | –
Cc1nc2cc(-c3ccccc3)nn2c(-c2ccc(OC(F)(F)F)cc2)c1C(OC(C)(C)C)C(=O)O (stereo not shown) [Example 25] | > 1 | –
Cc1nc2cc(-c3ccccc3)nn2c(-c2ccc3c(c2)CCO3)c1C(OC(C)(C)C)C(=O)O (stereo not shown) [Example 26] | 0.1 to 1 | –
Cc1nc2cc(-c3ccccc3)nn2c(-c2ccc(Cl)cc2F)c1C(OC(C)(C)C)C(=O)O (stereo not shown) [Example 27] | > 1 | –
Cc1nc2cc(-c3ccccc3)nn2c(-c2ccc3occc3c2)c1C(OC(C)(C)C)C(=O)O (stereo not shown) [Example 28] | > 1 | –
COc1ccc(-c2c(C(OC(C)(C)C)C(=O)O)c(C)nc3cc(-c4ccccc4)nn23)cc1C(F)(F)F (stereo not shown) [Example 29] | > 1 | –
Cc1nc2cc(-c3ccccc3)nn2c(-c2ccc3c(c2)OCO3)c1C(OC(C)(C)C)C(=O)O (stereo not shown) [Example 30] | > 1 | –
Cc1nc2cc(-c3ccccc3)nn2c(-c2ccc(OCc3ccccc3)cc2)c1C(OC(C)(C)C)C(=O)O (stereo not shown) [Example 31] | > 1 | –
COc1ccc(-c2c(C(OC(C)(C)C)C(=O)O)c(C)nc3cc(-c4ccccc4)nn23)cc1 (stereo not shown) [Example 32] | > 1 | –
COc1ccc(-c2c(C(OC(C)(C)C)C(=O)O)c(C)nc3cc(-c4ccccc4)nn23)cc1F (stereo not shown) [Example 33] | > 1 | –
Cc1nc2cc(-c3ccccc3)nn2c(-c2ccc(OC(C)C)cc2)c1C(OC(C)(C)C)C(=O)O (stereo not shown) [Example 34] | > 1 | –
COc1cc(F)c(-c2c(C(OC(C)(C)C)C(=O)O)c(C)nc3cc(-c4ccccc4)nn23)cc1F (stereo not shown) [Example 35] | > 1 | –
Cc1nc2cc(-c3ccccc3)nn2c(-c2ccc3c(ccn3C)c2)c1C(OC(C)(C)C)C(=O)O (stereo not shown) [Example 36] | 0.1 to 1 | –
Cc1nc2cc(-c3ccccc3)nn2c(-c2ccc3c4c(ccnc24)CCO3)c1C(OC(C)(C)C)C(=O)O (stereo not shown) [Example 37] | > 1 | –
Cc1nc2cc(-c3ccccc3)nn2c(-c2cc(F)c3c(c2C)CCCO3)c1C(OC(C)(C)C)C(=O)O (stereo not shown) [Example 38] | 0.1 to 1 | –
Cc1nc2cc(-c3ccccc3)nn2c(-c2cc(F)c3c(c2C)CCCO3)c1[C@H](OC(C)(C)C)C(=O)O [Example 39, (2S)-2-tert-butoxy-2-(7-(8-fluoro-5-methylchroman-6-yl)-5-methyl-2-phenylpyrazolo[1,5-a]pyrimidin-6-yl)acetic acid] | < 0.1 | –
Cc1nc2cc(-c3ccccc3)nn2c(-c2cc(F)c3c(c2C)CCCO3)c1[C@@H](OC(C)(C)C)C(=O)O [Example 40, (2R)-2-tert-butoxy-2-(7-(8-fluoro-5-methylchroman-6-yl)-5-methyl-2-phenylpyrazolo[1,5-a]pyrimidin-6-yl)acetic acid] | > 1 | –
Cc1ccc(-c2c(C(OC(C)(C)C)C(=O)O)c(C)nc3cc(-c4ccccc4)nn23)cc1 (stereo not shown) [Example 41, 2-tert-Butoxy-2-(5-methyl-2-phenyl-7-p-tolylpyrazolo[1,5-a]pyrimidin-6-yl)acetic acid, TFA salt] | 0.1 to 1 | 0.6
Cc1ccc(-c2c(C(OC(C)(C)C)C(=O)O)c(C)nc3ccnn23)cc1 (stereo not shown) [Example 42, 2-tert-Butoxy-2-(5-methyl-7-p-tolylpyrazolo[1,5-a]pyrimidin-6-yl)acetic acid, TFA salt] | > 1 | 4.5

Compound | EC50 (read-out: Activity) [µM] | EC50 (read-out: EC50 μM) [µM]
Cc1nc2cc(-c3ccccc3)nn2c(C)c1C(OC(C)(C)C)C(=O)O (stereo not shown) [Example 43, 2-tert-Butoxy-2-(5,7-dimethyl-2-phenylpyrazolo[1,5-a]pyrimidin-6-yl)acetic acid, TFA salt] | > 1 | 40
Cc1nc2c(-c3ccccc3)cnn2c(-c2cc(F)c3c(c2C)CCCO3)c1C(OC(C)(C)C)C(=O)O (stereo not shown) [Example 44, 2-tert-Butoxy-2-(7-(8-fluoro-5-methylchroman-6-yl)-5-methyl-3-phenylpyrazolo[1,5-a]pyrimidin-6-yl)acetic acid, TFA salt] | > 1 | 3
Cc1nc2c(-c3ccccc3)cnn2c(-c2ccc3c(c2)CCCO3)c1C(OC(C)(C)C)C(=O)O (stereo not shown) [Example 45, 2-tert-Butoxy-2-(7-(chroman-6-yl)-5-methyl-3-phenylpyrazolo[1,5-a]pyrimidin-6-yl)acetic acid, TFA salt] | 0.1 to 1 | 0.24
Cc1ccc(-c2cc3nc(C)c(C(OC(C)(C)C)C(=O)O)c(-c4cc(F)c5c(c4C)CCCO5)n3n2)cc1 (stereo not shown) [Example 46, 2-tert-Butoxy-2-(7-(8-fluoro-5-methylchroman-6-yl)-5-methyl-2-p-tolylpyrazolo[1,5-a]pyrimidin-6-yl)acetic acid, TFA salt] | < 0.1 | 0.09
Cc1ccc(-c2cc3nc(C)c(C(OC(C)(C)C)C(=O)O)c(-c4ccc5c(c4)CCCO5)n3n2)cc1 (stereo not shown) [Example 47] | < 0.1 | 0.08
Cc1nc2cc(-c3ccccc3)nn2c(-c2cc3ccccc3n2C)c1C(OC(C)(C)C)C(=O)O (stereo not shown) [Example 48] | > 1 | –
CCC(C)c1ccc(-c2c(C(OC(C)(C)C)C(=O)O)c(C)nc3cc(-c4ccccc4)nn23)cc1 (stereo not shown) [Example 49] | > 1 | –
Cc1nc2cc(-c3ccccc3)nn2c(-c2ccc3ncccc3c2)c1C(OC(C)(C)C)C(=O)O (stereo not shown) [Example 50] | > 1 | 2.4
Cc1nc2cc(-c3ccccc3)nn2c(-c2ccc3cc[nH]c3c2)c1C(OC(C)(C)C)C(=O)O (stereo not shown) [Example 51] | > 1 | –
COc1ccc(-c2c(C(OC(C)(C)C)C(=O)O)c(C)nc3cc(-c4ccccc4)nn23)c(Cl)c1 (stereo not shown) [Example 52] | > 1 | –
Cc1ccc(-c2c(C(OC(C)(C)C)C(=O)O)c(C)nc3cc(-c4ccccc4)nn23)c(Cl)c1 (stereo not shown) [Example 53] | 0.1 to 1 | –
Cc1ccc(-c2c(C(OC(C)(C)C)C(=O)O)c(C)nc3cc(-c4ccccc4)nn23)c(F)c1 (stereo not shown) [Example 54] | 0.1 to 1 | –
Cc1nc2cc(-c3ccccc3)nn2c(-c2ccccc2Cl)c1C(OC(C)(C)C)C(=O)O (stereo not shown) [Example 55] | > 1 | –
CCc1ccc(-c2c(C(OC(C)(C)C)C(=O)O)c(C)nc3cc(-c4ccccc4)nn23)cc1 (stereo not shown) [Example 56] | > 1 | –
Cc1nc2cc(-c3ccccc3)nn2c(-c2ccc(C(C)C)cc2)c1C(OC(C)(C)C)C(=O)O (stereo not shown) [Example 57] | > 1 | 1.7
CSc1ccc(-c2c(C(OC(C)(C)C)C(=O)O)c(C)nc3cc(-c4ccccc4)nn23)cc1 (stereo not shown) [Example 58] | > 1 | 3.1
Cc1cc(-c2c(C(OC(C)(C)C)C(=O)O)c(C)nc3cc(-c4ccccc4)nn23)ccc1F (stereo not shown) [Example 59] | > 1 | –
Cc1cc(F)ccc1-c1c(C(OC(C)(C)C)C(=O)O)c(C)nc2cc(-c3ccccc3)nn12 (stereo not shown) [Example 60] | > 1 | –
Cc1ccc(-c2c(C(OC(C)(C)C)C(=O)O)c(C)nc3cc(-c4ccccc4)nn23)cc1F (stereo not shown) [Example 61] | > 1 | –
Cc1ccc(F)c(-c2c(C(OC(C)(C)C)C(=O)O)c(C)nc3cc(-c4ccccc4)nn23)c1 (stereo not shown) [Example 62] | > 1 | 5
